From patent publication US8916702B2 (priority 2012, dated 2014)

tested on: HCV pseudoparticles (genotype 1a HCV E1 and E2 envelope, H77C isolate); assay: microbe, parasite or virus in culture; type: cell-based; settings: Hepatitis C virus, Huh-7, 48 h, HCV pseudoparticle infection of Huh7 cells, luciferase 2 days after infection; average of duplicates

Compound	EC50 [nM]
O=C(NCC[C@H](NC(=O)c1ccc(Nc2nc(NC3(c4ccc(Cl)cc4)CC3)nc(OCC(F)(F)F)n2)cc1)C(=O)O)C(=O)NCc1ccccc1 [Compound 1187]	0.08
Cc1ccc(CNC(=O)C(=O)NCC[C@H](NC(=O)c2ccc(Nc3nc(NC4(c5ccc(Cl)cc5)CC4)nc(OCC(F)(F)F)n3)cc2)C(=O)O)cc1F [Compound 1191]	0.17
COc1cccc(CNC(=O)C(=O)NC[C@H](NC(=O)c2ccc(Nc3nc(NC4(c5ccc(Cl)cc5)CC4)nc(OCC(F)(F)F)n3)cc2)C(=O)O)c1 [Compound 1193]	0.52
CCC1(CC)CC1CNC(=O)C(=O)NCC[C@H](NC(=O)c1ccc(Nc2nc(NC3(c4ccc(Cl)cc4)CC3)nc(OCC(F)(F)F)n2)cc1)C(=O)OC (some centres unmarked) [Compound 1199]	0.19
O=C(NCC[C@H](NC(=O)c1ccc(Nc2nc(NC3(c4ccc(Cl)cc4)CC3)nc(OCC(F)(F)F)n2)cc1)C(=O)O)C(=O)NCC1CCCOC1 (some centres unmarked) [Compound 1208]	0.21
CC1(C)[C@H]2C[C@@]1(C)CCC2CNC(=O)C(=O)NCC[C@H](NC(=O)c1ccc(Nc2nc(NC3(c4ccc(Cl)cc4)CC3)nc(OCC(F)(F)F)n2)cc1)C(=O)O (some centres unmarked) [Compound 1211]	0.13
C[C@H](NC(=O)C(=O)NCC[C@H](NC(=O)c1ccc(Nc2nc(NC3(c4ccc(Cl)cc4)CC3)nc(OCC(F)(F)F)n2)cc1)C(=O)O)C1CCCCC1 [Compound 1212]	0.07

same assay, conditions: Hepatitis C virus, Huh-7, 48 h, read-out: Activity (EC50 class), HCV pseudoparticle infection of Huh7 cells, luciferase 2 days after infection; EC50 expressed as class A/B

Compound	EC50 [nM]
Cc1ccc(CNC(=O)C(=O)NCC[C@H](NC(=O)c2ccc(Nc3nc(NC4(c5ccc(Cl)cc5)CC4)nc(OCC(F)(F)F)n3)cc2)C(=O)O)cc1 [Compound 1185]	0.01 to 10
COc1ccc(CNC(=O)C(=O)NCC[C@H](NC(=O)c2ccc(Nc3nc(NC4(c5ccc(Cl)cc5)CC4)nc(OCC(F)(F)F)n3)cc2)C(=O)O)cc1 [Compound 1186]	0.01 to 10
O=C(NCC[C@H](NC(=O)c1ccc(Nc2nc(NC3(c4ccc(Cl)cc4)CC3)nc(OCC(F)(F)F)n2)cc1)C(=O)O)C(=O)NCc1ccccc1 [Compound 1187]	0.01 to 10
Cc1ccc(CNC(=O)C(=O)NCC[C@H](NC(=O)c2ccc(Nc3nc(NC4(c5ccc(Cl)cc5)CC4)nc(OCC(F)(F)F)n3)cc2)C(=O)O)c(F)c1 [Compound 1188]	0.01 to 10
O=C(NCC[C@H](NC(=O)c1ccc(Nc2nc(NC3(c4ccc(Cl)cc4)CC3)nc(OCC(F)(F)F)n2)cc1)C(=O)O)C(=O)NCc1cc(F)ccc1F [Compound 1189]	0.01 to 10
O=C(NCC[C@H](NC(=O)c1ccc(Nc2nc(NC3(c4ccc(Cl)cc4)CC3)nc(OCC(F)(F)F)n2)cc1)C(=O)O)C(=O)NCc1c(F)cccc1F [Compound 1190]	0.01 to 10
Cc1ccc(CNC(=O)C(=O)NCC[C@H](NC(=O)c2ccc(Nc3nc(NC4(c5ccc(Cl)cc5)CC4)nc(OCC(F)(F)F)n3)cc2)C(=O)O)cc1F [Compound 1191]	0.01 to 10
O=C(NCC[C@H](NC(=O)c1ccc(Nc2nc(NC3(c4ccc(Cl)cc4)CC3)nc(OCC(F)(F)F)n2)cc1)C(=O)O)C(=O)NCc1cc(F)cc(F)c1 [Compound 1192]	0.01 to 10
COc1cccc(CNC(=O)C(=O)NC[C@H](NC(=O)c2ccc(Nc3nc(NC4(c5ccc(Cl)cc5)CC4)nc(OCC(F)(F)F)n3)cc2)C(=O)O)c1 [Compound 1193]	0.01 to 10
COc1ccc(CNC(=O)C(=O)NCC[C@H](NC(=O)c2ccc(Nc3nc(NC4(c5ccc(Cl)cc5)CC4)nc(OCC(F)(F)F)n3)cc2)C(=O)O)c(OC)c1 [Compound 1194]	0.01 to 10
COC(=O)[C@H](CCNC(=O)C(=O)NCC(C)(C)C)NC(=O)c1ccc(Nc2nc(NC3(c4ccc(Cl)cc4)CC3)nc(OCC(F)(F)F)n2)cc1 [Compound 1195]	0.01 to 10
COC(=O)[C@H](CCNC(=O)C(=O)NCC1CC1)NC(=O)c1ccc(Nc2nc(NC3(c4ccc(Cl)cc4)CC3)nc(OCC(F)(F)F)n2)cc1 [Compound 1196]	0.01 to 10
COC(=O)[C@H](CCNC(=O)C(=O)NCC1CCCCCC1)NC(=O)c1ccc(Nc2nc(NC3(c4ccc(Cl)cc4)CC3)nc(OCC(F)(F)F)n2)cc1 [Compound 1197]	0.01 to 10
COC(=O)[C@H](CCNC(=O)C(=O)NCC1CCCOC1)NC(=O)c1ccc(Nc2nc(NC3(c4ccc(Cl)cc4)CC3)nc(OCC(F)(F)F)n2)cc1 (some centres unmarked) [Compound 1198]	0.01 to 10
CCC1(CC)CC1CNC(=O)C(=O)NCC[C@H](NC(=O)c1ccc(Nc2nc(NC3(c4ccc(Cl)cc4)CC3)nc(OCC(F)(F)F)n2)cc1)C(=O)OC (some centres unmarked) [Compound 1199]	0.01 to 10
COC(=O)[C@H](CCNC(=O)C(=O)NCC1CCCN(C(=O)OC(C)(C)C)C1)NC(=O)c1ccc(Nc2nc(NC3(c4ccc(Cl)cc4)CC3)nc(OCC(F)(F)F)n2)cc1 (some centres unmarked) [Compound 1200]	0.01 to 10
COC(=O)[C@H](CCNC(=O)C(=O)NCC1CC[C@H]2C[C@@H]1C2(C)C)NC(=O)c1ccc(Nc2nc(NC3(c4ccc(Cl)cc4)CC3)nc(OCC(F)(F)F)n2)cc1 (some centres unmarked) [Compound 1201]	0.01 to 10
CCC(CC)CNC(=O)C(=O)NCC[C@H](NC(=O)c1ccc(Nc2nc(NC3(c4ccc(Cl)cc4)CC3)nc(OCC(F)(F)F)n2)cc1)C(=O)OC [Compound 1202]	0.01 to 10
COC(=O)[C@H](CCNC(=O)C(=O)NCC1(C2CCCCC2)CC1)NC(=O)c1ccc(Nc2nc(NC3(c4ccc(Cl)cc4)CC3)nc(OCC(F)(F)F)n2)cc1 [Compound 1203]	0.01 to 10
CC(C)(C)OC(=O)N1CCCC(CNC(=O)C(=O)NCC[C@H](NC(=O)c2ccc(Nc3nc(NC4(c5ccc(Cl)cc5)CC4)nc(OCC(F)(F)F)n3)cc2)C(=O)O)C1 (some centres unmarked) [Compound 1204]	0.01 to 10
CC(C)(C)CNC(=O)C(=O)NCC[C@H](NC(=O)c1ccc(Nc2nc(NC3(c4ccc(Cl)cc4)CC3)nc(OCC(F)(F)F)n2)cc1)C(=O)O [Compound 1205]	0.01 to 10
O=C(NCC[C@H](NC(=O)c1ccc(Nc2nc(NC3(c4ccc(Cl)cc4)CC3)nc(OCC(F)(F)F)n2)cc1)C(=O)O)C(=O)NCC1CC1 [Compound 1206]	0.01 to 10
O=C(NCC[C@H](NC(=O)c1ccc(Nc2nc(NC3(c4ccc(Cl)cc4)CC3)nc(OCC(F)(F)F)n2)cc1)C(=O)O)C(=O)NCC1CCCCCC1 [Compound 1207]	0.01 to 10

Compound	EC50 [nM]
O=C(NCC[C@H](NC(=O)c1ccc(Nc2nc(NC3(c4ccc(Cl)cc4)CC3)nc(OCC(F)(F)F)n2)cc1)C(=O)O)C(=O)NCC1CCCOC1 (some centres unmarked) [Compound 1208]	0.01 to 10
CCC1(CC)CC1CNC(=O)C(=O)NCC[C@H](NC(=O)c1ccc(Nc2nc(NC3(c4ccc(Cl)cc4)CC3)nc(OCC(F)(F)F)n2)cc1)C(=O)O (some centres unmarked) [Compound 1209]	0.01 to 10
CC(C)(C)OC(=O)NC1CCC(CNC(=O)C(=O)NCC[C@H](NC(=O)c2ccc(Nc3nc(NC4(c5ccc(Cl)cc5)CC4)nc(OCC(F)(F)F)n3)cc2)C(=O)O)CC1 (some centres unmarked) [Compound 1210]	0.01 to 10
CC1(C)[C@H]2C[C@@]1(C)CCC2CNC(=O)C(=O)NCC[C@H](NC(=O)c1ccc(Nc2nc(NC3(c4ccc(Cl)cc4)CC3)nc(OCC(F)(F)F)n2)cc1)C(=O)O (some centres unmarked) [Compound 1211]	0.01 to 10
C[C@H](NC(=O)C(=O)NCC[C@H](NC(=O)c1ccc(Nc2nc(NC3(c4ccc(Cl)cc4)CC3)nc(OCC(F)(F)F)n2)cc1)C(=O)O)C1CCCCC1 [Compound 1212]	0.01 to 10
CC(C)(C)OC(=O)N1CCC(CNC(=O)C(=O)NCC[C@H](NC(=O)c2ccc(Nc3nc(NC4(c5ccc(Cl)cc5)CC4)nc(OCC(F)(F)F)n3)cc2)C(=O)O)CC1 [Compound 1213]	0.01 to 10
O=C(NCC[C@H](NC(=O)c1ccc(Nc2nc(NC3(c4ccc(Cl)cc4)CC3)nc(OCC(F)(F)F)n2)cc1)C(=O)O)C(=O)NCC1CCOCC1 [Compound 1215]	0.01 to 10
COC(=O)[C@H](CCNC(=O)C(=O)Nc1cccnc1OC)NC(=O)c1ccc(Nc2nc(NC3(c4ccc(Cl)cc4)CC3)nc(OCC(F)(F)F)n2)cc1 [Compound 1216]	0.01 to 10
COC(=O)[C@H](CCNC(=O)C(=O)Nc1ccnc(OC)c1)NC(=O)c1ccc(Nc2nc(NC3(c4ccc(Cl)cc4)CC3)nc(OCC(F)(F)F)n2)cc1 [Compound 1217]	0.01 to 10
COC(=O)[C@H](CCNC(=O)C(=O)Nc1ccc(OC)nc1)NC(=O)c1ccc(Nc2nc(NC3(c4ccc(Cl)cc4)CC3)nc(OCC(F)(F)F)n2)cc1 [Compound 1218]	0.01 to 10
COC(=O)[C@H](CCNC(=O)C(=O)Nn1cnnc1)NC(=O)c1ccc(Nc2nc(NC3(c4ccc(Cl)cc4)CC3)nc(OCC(F)(F)F)n2)cc1 [Compound 1219]	10 to 1000
COC(=O)[C@H](CCNC(=O)C(=O)NNc1ccccc1)NC(=O)c1ccc(Nc2nc(NC3(c4ccc(Cl)cc4)CC3)nc(OCC(F)(F)F)n2)cc1 [Compound 1220]	0.01 to 10
COC(=O)[C@H](CCNC(=O)C(=O)Nc1ccn(C)n1)NC(=O)c1ccc(Nc2nc(NC3(c4ccc(Cl)cc4)CC3)nc(OCC(F)(F)F)n2)cc1 [Compound 1221]	0.01 to 10
COC(=O)[C@H](CCNC(=O)C(=O)Nc1nccn1C)NC(=O)c1ccc(Nc2nc(NC3(c4ccc(Cl)cc4)CC3)nc(OCC(F)(F)F)n2)cc1 [Compound 1222]	0.01 to 10
COC(=O)[C@H](CCNC(=O)C(=O)Nc1cc[nH]n1)NC(=O)c1ccc(Nc2nc(NC3(c4ccc(Cl)cc4)CC3)nc(OCC(F)(F)F)n2)cc1 [Compound 1223]	0.01 to 10
COC(=O)[C@H](CCNC(=O)C(=O)Nc1cn[nH]c1)NC(=O)c1ccc(Nc2nc(NC3(c4ccc(Cl)cc4)CC3)nc(OCC(F)(F)F)n2)cc1 [Compound 1224]	0.01 to 10
COC(=O)[C@H](CCNC(=O)C(=O)Nc1cncn1C)NC(=O)c1ccc(Nc2nc(NC3(c4ccc(Cl)cc4)CC3)nc(OCC(F)(F)F)n2)cc1 [Compound 1225]	0.01 to 10
COC(=O)[C@H](CCNC(=O)C(=O)Nc1cnn(C)c1)NC(=O)c1ccc(Nc2nc(NC3(c4ccc(Cl)cc4)CC3)nc(OCC(F)(F)F)n2)cc1 [Compound 1226]	0.01 to 10
COC(=O)[C@H](CCNC(=O)C(=O)Nc1cccc(F)c1)NC(=O)c1ccc(Nc2nc(NC3(c4ccc(Cl)cc4)CC3)nc(OCC(F)(F)F)n2)cc1 [Compound 1227]	0.01 to 10
COC(=O)[C@H](CCNC(=O)C(=O)Nc1cccc(OC)c1)NC(=O)c1ccc(Nc2nc(NC3(c4ccc(Cl)cc4)CC3)nc(OCC(F)(F)F)n2)cc1 [Compound 1228]	0.01 to 10
COC(=O)[C@H](CCNC(=O)C(=O)Nc1cccc(C(F)(F)F)c1)NC(=O)c1ccc(Nc2nc(NC3(c4ccc(Cl)cc4)CC3)nc(OCC(F)(F)F)n2)cc1 [Compound 1229]	0.01 to 10
COC(=O)[C@H](CCNC(=O)C(=O)Nc1ccc(F)cc1)NC(=O)c1ccc(Nc2nc(NC3(c4ccc(Cl)cc4)CC3)nc(OCC(F)(F)F)n2)cc1 [Compound 1230]	0.01 to 10
COC(=O)[C@H](CCNC(=O)C(=O)Nc1ccccc1F)NC(=O)c1ccc(Nc2nc(NC3(c4ccc(Cl)cc4)CC3)nc(OCC(F)(F)F)n2)cc1 [Compound 1231]	0.01 to 10
